Target: Metabotropic glutamate receptor 1 (Rattus norvegicus, UniProt P23385)
Assay: Inhibition of rat mGluR1
Conditions: read-out: IC50

Sequence of Metabotropic glutamate receptor 1 (P23385 whole entry): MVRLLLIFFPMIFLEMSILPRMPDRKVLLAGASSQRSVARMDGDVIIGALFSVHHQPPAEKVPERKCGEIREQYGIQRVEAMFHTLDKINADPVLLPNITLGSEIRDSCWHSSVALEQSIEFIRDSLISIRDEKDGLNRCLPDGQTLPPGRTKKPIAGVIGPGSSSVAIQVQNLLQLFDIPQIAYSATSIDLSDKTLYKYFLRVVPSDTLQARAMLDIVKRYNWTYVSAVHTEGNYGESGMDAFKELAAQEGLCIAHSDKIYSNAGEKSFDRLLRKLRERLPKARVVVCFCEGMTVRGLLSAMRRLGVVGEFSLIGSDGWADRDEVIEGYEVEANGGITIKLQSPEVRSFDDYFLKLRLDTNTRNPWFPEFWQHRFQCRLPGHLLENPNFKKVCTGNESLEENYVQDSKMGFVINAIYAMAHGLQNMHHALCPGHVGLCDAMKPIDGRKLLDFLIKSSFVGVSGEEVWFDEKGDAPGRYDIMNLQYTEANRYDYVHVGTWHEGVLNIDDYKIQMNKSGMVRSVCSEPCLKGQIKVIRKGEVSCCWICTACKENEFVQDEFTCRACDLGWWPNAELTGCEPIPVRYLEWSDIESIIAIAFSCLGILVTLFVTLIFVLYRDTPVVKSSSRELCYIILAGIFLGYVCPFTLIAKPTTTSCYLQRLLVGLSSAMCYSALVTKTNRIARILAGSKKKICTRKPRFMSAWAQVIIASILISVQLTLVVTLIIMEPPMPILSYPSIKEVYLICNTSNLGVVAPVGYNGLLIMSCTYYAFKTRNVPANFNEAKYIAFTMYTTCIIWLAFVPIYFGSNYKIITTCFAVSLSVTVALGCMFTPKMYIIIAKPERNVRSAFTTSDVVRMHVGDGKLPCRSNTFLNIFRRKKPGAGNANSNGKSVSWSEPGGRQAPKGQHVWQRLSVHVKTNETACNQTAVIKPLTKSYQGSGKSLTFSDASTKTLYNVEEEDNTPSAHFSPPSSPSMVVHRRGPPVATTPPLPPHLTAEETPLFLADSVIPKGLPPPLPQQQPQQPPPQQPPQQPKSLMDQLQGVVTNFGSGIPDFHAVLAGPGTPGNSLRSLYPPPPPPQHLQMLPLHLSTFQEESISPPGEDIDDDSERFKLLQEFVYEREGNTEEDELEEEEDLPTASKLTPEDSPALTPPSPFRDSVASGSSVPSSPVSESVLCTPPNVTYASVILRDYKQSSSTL

In order of rising IC50:
1. CN(C)c1ccnc2sc3c(=O)n(C4CCCCCC4)cnc3c12  0.001 µM
2. CCc1ccc(-n2cnc3c(sc4nccc(N(C)C)c43)c2=O)cc1  0.003 µM
3. CN(C)c1ccnc2sc3c(=O)n(-c4ccc(Br)cc4)cnc3c12  0.004 µM
4. Cc1ccc(-n2cnc3c(sc4nccc(N(C)C)c43)c2=O)cc1  0.005 µM
5. CN(C)c1ccnc2sc3c(=O)n(C4CCCC4)cnc3c12  0.005 µM
6. CCc1cccc(-n2cnc3c(sc4nccc(N(C)C)c43)c2=O)c1  0.009 µM
7. CN(C)c1ccnc2sc3c(=O)n(N4CCCCCC4)cnc3c12  0.01 µM
8. CN(C)c1ccnc2sc3c(=O)n(C4CCCCCCC4)cnc3c12  0.013 µM
9. CN(C)c1ccnc2sc3c(=O)n(-c4ccc(Cl)cc4)cnc3c12  0.016 µM
10. Cc1ccc(-n2cnc3c(sc4nccc(N(C)C)c43)c2=O)c(C)c1  0.017 µM
11. CN(C)c1ccnc2sc3c(=O)n(-c4ccccc4)cnc3c12  0.02 µM
12. CN(C)c1ccnc2sc3c(=O)n(-c4ccc(F)cc4)cnc3c12  0.023 µM
13. CN(C)c1ccnc2sc3c(=O)n(CC4CCCC4)cnc3c12  0.026 µM
14. CN(C)c1ccnc2sc3c(=O)n(-c4ccc(C(F)(F)F)cc4)cnc3c12  0.032 µM
15. CCc1ccc(-n2cnc3c(sc4nccc(N(C)CC)c43)c2=O)cc1  0.037 µM
16. COc1ccc(-n2cnc3c(sc4nccc(N(C)C)c43)c2=O)cn1  0.039 µM
17. CCc1ccc(-n2cnc3c(sc4nccc(NC5CC5)c43)c2=O)cc1  0.041 µM
18. CCc1ccc(-n2c(C)nc3c(sc4nccc(N(C)C)c43)c2=O)cc1  0.044 µM
19. CN(C)c1ccnc2sc3c(=O)n(-c4ccc(Cl)cc4Cl)cnc3c12  0.045 µM
20. CCc1ccc(-n2cnc3c(sc4nccc(NCC#N)c43)c2=O)cc1  0.049 µM
21. CN(C)c1ccnc2sc3c(=O)n(C4CCCCC4)cnc3c12  0.05 µM
22. CN(C)c1ccnc2sc3c(=O)n(-c4ccccc4O)cnc3c12  0.05 µM
23. CCc1ccc(-n2cnc3c(sc4nccc(N(C)CCOC)c43)c2=O)cc1  0.071 µM
24. CN(C)c1ccnc2sc3c(=O)n(C45CC6CC(CC(C6)C4)C5)cnc3c12  0.076 µM
25. CCc1ccc(-n2c(CC)nc3c(sc4nccc(N(C)C)c43)c2=O)cc1  0.084 µM
26. CN(C)c1ccnc2sc3c(=O)n(-c4ccc(C5CC5)cc4)cnc3c12  0.087 µM
27. CCc1ccc(-n2cnc3c(sc4nccc(NC)c43)c2=O)cc1  0.098 µM
28. CCc1ccc(-n2cnc3c(sc4nccc(NCC(F)(F)F)c43)c2=O)cc1  0.099 µM
29. CCCCc1nc2c(sc3nccc(N(C)C)c32)c(=O)n1-c1ccc(CC)cc1  0.101 µM
30. CCc1ccc(-n2cnc3c(sc4nccc(N5CCC5)c43)c2=O)cc1  0.113 µM
31. CN(C)c1ccnc2sc3c(=O)n(-c4ccc5cc[nH]c5c4)cnc3c12  0.122 µM
32. CC1CCCCC1n1cnc2c(sc3nccc(N(C)C)c32)c1=O (stereo unspecified)  0.13 µM
33. CN(C)c1ccnc2sc3c(=O)n(CC4CCCCC4)cnc3c12  0.139 µM
34. CC1CCC(n2cnc3c(sc4nccc(N(C)C)c43)c2=O)CC1 (stereo unspecified)  0.14 µM
35. CN(C)c1ccnc2sc3c(=O)n(C4CCC4)cnc3c12  0.167 µM
36. C[N+](C)([O-])c1ccnc2sc3c(=O)n(C4CCCCCC4)cnc3c12  0.167 µM
37. CCCc1ccc(-n2cnc3c(sc4nccc(N(C)C)c43)c2=O)cc1  0.18 µM
38. CCc1ccccc1-n1cnc2c(sc3nccc(N(C)C)c32)c1=O  0.251 µM
39. CN(C)c1ccnc2sc3c(=O)n(Cc4ccccc4)cnc3c12  0.281 µM
40. CCc1ccc(-n2cnc3c(sc4nccc([N+](C)(C)[O-])c43)c2=O)cc1  0.306 µM
41. CCC(CC)n1cnc2c(sc3nccc(N(C)C)c32)c1=O  0.335 µM
42. CC(C)c1ccc(-n2cnc3c(sc4nccc(N(C)C)c43)c2=O)cc1  0.407 µM
43. CC1CCCC(n2cnc3c(sc4nccc(N(C)C)c43)c2=O)C1 (stereo unspecified)  0.482 µM
44. CN(C)c1ccnc2sc3c(=O)n(C4CC4)cnc3c12  0.632 µM
45. CN(C)c1ccnc2sc3c(=O)n(-c4ccc(C(C)(C)C)cc4)cnc3c12  8.5 µM

Same assay, conditions: read-out: pIC50 (converted)

With `CCc1ccc(-n2cnc3c(sc4nccc(NCC#N)c43)c2=O)cc1` the IC50 was 0.0427 µM.

Reference: ChEMBL document CHEMBL1156680, “3D-QSAR studies of triazafluorenone inhibitors of metabotropic glutamate receptor subtype 1” (Eur J Med Chem, 2008)
